Data published in US20250064762A1, “A SUBSTITUTED AROMATIC DICARBONIC ACID AMIDE AS AN INHIBITOR OF THE FERROPTOSIS SUPPRESSOR PROTEIN-1 (FSP1)” (JULIUS-MAXIMILIANS-UNIVERSITÄT WÜRZBURG, priority 2021, published 2025).

Experiments:
[1] = tested on: HT1080 cells; assay: Lipid droplet staining with BODIPY 493/503; format: cell-based, human; conditions: CPBA 100 μM; T863 10 μM and PF-06424439 5 μM; 16 h
Method: HT1080 cells were seeded on glass coverslips (15,000 cells per well of 12-well plate) in complete DMEM, and incubated for 16 h with 100 μM CPBA or with 0.1% of the DMSO solvent control, in the absence or presence of inhibitors of DGAT1 and DGAT2 (10 μM T863/iDGAT1; 5 μM PF-06424439/iDGAT2). Cells were fixed with 4% para-formaldehyde, lipid droplets were stained with the neutral lipid droplet stain BODIPY 493/503 (2 μM, 30 min), and nuclei were counterstained with 4′,6-diamidino-2-phenylindole (DAPI). Cells were mounted with Immu-Mount (Fisher Scientific), and imaged by fluorescence microscopy on a THUNDER imager (THUNDER Imager Live Cell & 3D Cell Culture & 3D Assay system, Leica DMI8; Leica Microsystems), using a 63× objective.
We next investigated the impact of CPBA on triglyceride levels and ferroptosis sensitivity by first imaging lipid droplets with the neutral lipid stain BODIPY 493/503.
The diglyceride acyltransferase isoforms 1 and 2 (DGAT1, DGAT2) are required to catalyze the formation of triglycerides from diacylglycerol and acyl-CoA.

[2] = tested on: GPX4-KO/FSP1-OE HT1080 cells; assay: Viability of FSP1-dependent GPX4-KO cells with serial dilutions of CPBA, no FINs; format: cell-based, human; conditions: GPX4-KO, FSP1-dependent cells treated with CPBA
Method: The following HT1080 fibrosarcoma cell lines were generated using CRISPR/Cas9 technology, as previously described (Doll et al., 2019): HT1080 GPX4-knockout (KO) cells (maintained in the presence of 100 μM α-tocopherol); HT1080 GPX4 knockout cells overexpressing FSP1 (GPX4-KO/FSP1-OE); GPX4-KO cells overexpressing FSP1 and re-expressing GPX4 (GPX4-KO/FSP1-OE/GPX4-OE); HT1080 FSP1-WT or FSP1-KO cells; and HT1080 FSP1-KO cells reconstituted with either FSP1-WT or FSP1-G2A. LOX-IMVI (BRAF V600E heterozygous human melanoma cells) expressing either the Venus mock vector or FSP1-Venus (Doll et al., 2019) were grown in RPMI-1640 supplemented with 10% FCS, 2 mM L-glutamine and Pen/Strep.
Next, we tested the effect of CPBA on ferroptotic cell death in GPX4-deficient HT1080 cells whose survival depends on the expression of FSP1 in order to suppress ferroptosis in the absence of GPX4. GPX4 knockout cells overexpressing FSP1 (GPX4-KO/FSP1-OE), or GPX4-KO cells overexpressing FSP1 and re-expressing GPX4 (GPX4-KO/FSP1-OE/GPX4-OE) were incubated with serial dilutions of CPBA. Note that no ferroptosis inducers (FINs) were added. Protein expression was confirmed by Western Blot as described above (see FIG. 11).

| Structure (SMILES) | lipid droplets [1] | prevention of CPBA-induced cell death [2] |
| --- | --- | --- |
| CS(=O)(=O)O.O=C([C@@H]1CCCN(c2ccc3[nH]c(C4(n5cc(Cl)cn5)CC4)nc3n2)C1)N1CCCC1 [PF-06424439] | blocked lipid droplet formation both in DMSO- and in CPBA-treated cells |  |
| CC1(C)Oc2ncnc(N)c2N=C1c1ccc([C@H]2CC[C@H](CC(=O)O)CC2)cc1 [T863] | blocked lipid droplet formation both in DMSO- and in CPBA-treated cells |  |
| Clc1cccc(CN=C2Nc3ccccc3NC23CCNCC3)c1 [liproxstatin-1, reference compound] |  | cell death is prevented by liproxstatin-1 |
